Assays:
[1] = Shift in emission spectrum on exposure to varying amounts of FeCl3; conditions: for red-shift in peak emission wavelength / Fe^3+ ions at which shift in emission spectrum is saturated: FeCl3; for total red-shift in peak emission wavelength: FeCl3, at saturation
Experimental: Two substituted chromones (Compound 11 and Compound 20) were dissolved in methanol and exposed to varying amounts of FeCl3 (i.e., Fe^3+). FIG. 4 illustrates the shift in emission spectrum of Compound 11 with increasing amounts of Fe^3+ ions. With about 10 equivalents of Fe^3+ ions, the shift in emission spectrum is saturated, with a total of about a 30 nm red-shift in peak emission wavelength. FIG. 5 illustrates the shift in emission spectrum of Compound 20 with increasing amounts of Fe^3+ ions. With about 10 equivalents of Fe^3+ ions, the shift in emission spectrum is saturated, with a total of about a 50 nm red-shift in peak emission wavelength.
Compound 11 was dissolved in various solvents and then exposed to varying amounts of FeCl3 (i.e., Fe^3+). […]

[2] = Emission spectrum on exposure to varying amounts of (NH4)2Fe(SO4)2.6H2O
Experimental: Compound 11 was dissolved in methanol and then exposed to varying amounts of FeCl3 (i.e., Fe^3+) or (NH4)2Fe(SO4)2.6H2O (i.e., Fe^2+). […] Therefore, Compound 11 may be used to detect Fe^3+ while in the presence of Fe^2+.

[3] = Emission spectrum on exposure to varying amounts of Pb(NO3)2 in different solvents
Experimental: Compound 20 was dissolved in methanol and then exposed to varying amounts of Pb(NO3)2 (i.e., Pb^2+). […] Therefore, a kit, method, system, or the like may utilize a specific solvent system for detection of lead or other ions. Alternatively, and especially where the metal ion concentration is unknown, a kit, method, system, or the like may utilize a series of solvent systems in parallel to determine a concentration of metal ions.
A 5 μM sample of Compound 25 in 3:1 tetrahydrofuran:methanol or 2:1 tetrahydrofuran:methanol was prepared and exposed to varying amounts of Pb(NO3)2 (i.e., Pb^2+) dissolved in deionized water.

[4] = Detection of lead in methanol extract of soil sample; conditions: methanol filtrate diluted in 3:1 tetrahydrofuran:methanol
Experimental: A lead-free soil sample was collected, placed into a Buchner funnel, and soaked with 1 mL of 0.15 M Pb(NO3)2 in water to introduce lead to the soil. As a control sample, the same was performed with the lead-free soil without exposure to Pb^2+. After soaking, the soil samples were washed with 50 mL of methanol. A sample from each filtrate was diluted in 3:1 tetrahydrofuran:methanol and exposed to Compound 25. […] This example illustrates that the substituted chromones described herein may be useful in detecting ions from soil extracts.

[5] = Extraction of lead from water with octanol and triethylamine; conditions: 3 mM Pb(NO3)2 in deionized water, 1 equivalent triethylamine
Experimental: A 3 mM Pb(NO3)2 sample was prepared in deionized water and Compound 25 was added to give a green fluorescence. The lead was then extracted from the water using either 1-octanol or 2-octanol each with 1 equivalent (relative to Compound 25) of triethylamine, which turned the octanol portion green. After washing thrice with 1-octanol, 99% of the Pb^2+had been extracted from the water. After washing twice with 2-octanol, 83% of the Pb^2+had been extracted from the water.

[6] = Visual detection limit of Pb(NO3)2 (color change blue to green); conditions: 5 μM compound in 3:1 tetrahydrofuran:methanol, Pb(NO3)2 in deionized water
Experimental: The detection limit Pb(NO3)2 (i.e., Pb^2+) for Compound 25 in 3:1 tetrahydrofuran:methanol was tested by exposing samples of 5 μM Compound 25 to ever decreasing concentrations of Pb(NO3)2 dissolved in deionized water.
A 40 mM solution of Pb(NO3)2 (i.e., Pb^2+) was prepared in tap water and then diluted with 3:1 tetrahydrofuran:methanol to a lead concentration of 133 μM. The resultant sample was added to solutions of 5 μM sample of Compound 25 in 3:1 tetrahydrofuran:methanol. […] This example illustrates that the lead detection can be performed using tap water, which includes a variety of other ions.

[7] = Ion selectivity, visual inspection when excited at 365 nm; conditions: 3:1 tetrahydrofuran:methanol
Experimental: Compound 25 was dissolved in 3:1 tetrahydrofuran:methanol and then exposed to varying amounts of Zn/SO4 (i.e., Zn^2+), (NH4)2Fe(SO4)2.6H2O (i.e., Fe^2+), Fe2O3 (i.e., Fe^3+), CuSO4 (i.e., Cu^2+), or Pb(NO3)2 (i.e., Pb^2+) each in deionized water. Upon visual inspection when excited at 365 nm, the sample exposed to Pb^2+turned green while all other samples remained blue.

SMILES: COC(=O)C(C)(C)C1Oc2ccc(OC)cc2C(=O)/C1=C\O (centres unmarked) [Compound 11, (Z)-methyl-2-(3-(hydroxymethylene)-6-methoxy-4-oxochroman-2-yl)-2-methylpropanoate]
- red-shift in peak emission wavelength ([1]; 1:1 methanol:water): still exhibits a red-shift in peak emission wavelength
- intensity change for the peak emission wavelength with increasing metal ion concentration ([1]; methanol (FIG. 4)): intensity decrease
- Fe^3+ ions at which shift in emission spectrum is saturated ([1]; methanol): about 10 equivalents
- shift of peak emission wavelength ([1]; methanol, FeCl3 (FIG. 4)): significant red-shift
- total red-shift in peak emission wavelength ([1]; methanol): ~30 nm
- red-shift in peak emission wavelength ([1]; polar aprotic solvents such as tetrahydrofuran, acetonitrile, acetone): did not exhibit an appreciable red-shift
- red-shift in peak emission wavelength ([1]; polar protic solvents like water, methanol and mixtures thereof): exhibited an appreciable red-shift
- intensity change for the peak emission wavelength with increasing metal ion concentration ([2]; methanol (FIG. 6)): intensity decrease
- shift of peak emission wavelength ([2]; methanol, (NH4)2Fe(SO4)2.6H2O (FIG. 6)): does not exhibit appreciable shift

SMILES: CCc1ccc2c(c1)C(=O)/C(=C\NS(=O)(=O)c1ccc(C)cc1)C(C(C)(C)C(=O)OC)O2 (centres unmarked) [Compound 20, (Z)-methyl 2-(6-ethyl-3-((4-methylphenylsulfonamido)meth-ylene)-4-oxochroman-2-yl)-2-methylpropanoate]
- Pb^2+ at max shift in peak emission wavelength ([3]; 1:1 tetrahydrofuran:methanol): about 5 equivalents
- Pb^2+ at max shift in peak emission wavelength ([3]; 3:1 tetrahydrofuran:methanol): about 3 equivalents
- shift in peak emission wavelength ([3]; THF alone): no appreciable shift
- Pb^2+ at which shift in peak emission wavelength maxes out ([3]; methanol): 10 equivalents
- change of peak emission wavelength in the presence of Pb^2+ ([3]; methanol, 1:1 and 3:1 tetrahydrofuran:methanol, tetrahydrofuran (FIGS. 7-10), degree depends on solvent): red-shift and intensity decrease
- shift in peak emission wavelength at 1 equivalent Pb^2+ ([3]; mixed tetrahydrofuran/methanol): does have an appreciable shift
- red-shift in peak emission wavelength ([1]; 1:1 methanol:water): does not
- Fe^3+ ions at which shift in emission spectrum is saturated ([1]; methanol): about 10 equivalents
- total red-shift in peak emission wavelength ([1]; methanol): ~50 nm

SMILES: COC(=O)C(C)(C)C1Oc2ccc(OC)cc2C(=O)/C1=C\NS(=O)(=O)c1ccc(OC)cc1 (centres unmarked) [Compound 25, (Z)methyl-2-(6-methoxy-3-(((4-methoxyphenyl)sulfonamido)methylene)-4-oxochroman-2-yl)-2-methylpropanoate]
- visual change of fluorescence in the presence of Pb^2+ ([3]; 5 μM compound, 3:1 or 2:1 tetrahydrofuran:methanol): from blue to green
- change of peak emission wavelength in the presence of Pb^2+ ([3]; 5 μM compound, 3:1 or 2:1 tetrahydrofuran:methanol, excitation 370 nm (FIGS. 11-12)): red-shift and intensity decrease
- color change with extract from soil sample exposed to Pb^2+ [4]: color change from blue to green
- Pb^2+ extracted from the water ([5]; washing thrice with 1-octanol): 99%
- Pb^2+ extracted from the water ([5]; washing twice with 2-octanol): 83%
- speed of color change observed [6]: almost instantaneous
- fluorescence color of sample ([7]; (NH4)2Fe(SO4)2.6H2O in deionized water): remained blue
- fluorescence color of sample ([7]; CuSO4 in deionized water): remained blue
- fluorescence color of sample ([7]; Fe2O3 in deionized water): remained blue
- fluorescence color of sample ([7]; Pb(NO3)2 in deionized water): turned green
- fluorescence color of sample ([7]; Zn/SO4 in deionized water): remained blue

— US11199497B2, “Fluorescent compounds as sensing agents” (OHIO NORTHERN UNIVERSITY, priority 2016, dated 2021)
